Source: US10400064B2, “Glycerol-based polycarbonates” (TRUSTEES OF BOSTON UNIVERSITY, priority 2014, dated 2019)

Test system: A549 cells
Experiment: In vitro toxicity analysis, viability after 3 days of treatment
Type: cell-based
Conditions: incubated with treatment for 3 days
Method: Scale bar=200 nm. […] Cells were incubated with treatment for 5 days, and viability was assessed. […] Right lower panel: In vitro toxicity analysis of PGC-Cisplatin and cisplatin alone in A549 cells. Cells were incubated with treatment for 3 days, and viability was assessed.
PGC-Pax and PGC-Cisplatin nanoparticles are synthesized using a miniemulsion technique. Briefly, the polymer is added to dichloromethane, and the organic phase is dispersed via sonication into an aqueous phase, containing sodium dodecyl sulfate as a surfactant.

N.N.[Cl][Pt][Cl] [cisplatin]
IC50: 0.9273 µg/mL
